Laboratory results as given in publication PMC2974656, “Selective killing of human immunodeficiency virus infected cells by non-nucleoside reverse transcriptase inhibitor-induced activation of HIV protease” (Retrovirology, 2010).
Read-outs that look alike come from different tables or passages of the source.

Tests used:
[1] = system: intracellular Gag processing by HIV PR; assay type: cell-based, HIV-1; conditions: for Enhancement of alpha complementation: 0.03 to 10 μM NNRTI, result in words
Method: In previous studies, high concentrations of NNRTI (5 μM) were required to observe NNRTI mediated activation of intracellular HIV PR activity. […]. Towards this end, we developed a biochemical assay for gel independent quantitation of intracellular Gag processing by HIV PR in the context of a virus producing cell. We had previously shown that additional protein domains, consisting of small epitope tags or even the 27 kDa green fluorescent protein (EGFP), can be inserted between the MA and CA domains of the Gag and Gag-Pol polyproteins without affecting polyprotein production or processing by HIV PR [36]. Based on this, we designed a HIV reporter construct which contained a small N-terminal fragment ('alpha peptide') of Escherichia coli beta-galactosidase (β-Gal), flanked by two HIV PR recognition sites, between the MA and CA coding sequences of Gag (Figure 1A). […] This so called alpha complementation principle can be exploited for use in mammalian cells and has been employed for the establishment of various cell based biochemical assay systems. We reasoned that embedding of the small alpha peptide within the multi-domain polyproteins Gag or Gag-Pol, respectively, should impair its productive association with the omega subunit, while proteolytic release of the alpha peptide from the polyprotein by PR would allow the formation of enzymatically active β-Gal. This should allow us to monitor intracellular Gag and Gag-Pol processing through increased β-Gal activity.
Reconstituted β-Gal activity in cell lysates was measured by cleavage of the chromogenic substrate CPRG [42] as described in Methods.
The activity of β-Gal in cell lysates from transfected 293T cells was measured by enzymatic cleavage of the chromogenic β-Gal substrate chlorphenolred-β-D-galactopyranoside (CPRG, Roche; [42]). At 44 h post transfection, cells were briefly rinsed with PBS and suspended in reporter gene assay lysis buffer (Roche, 600 μl per 6-well dish) supplemented with a protease inhibitor mix (Roche). Cell suspensions were incubated for 10 min at room temperature and cell debris was subsequently removed by brief centrifugation. Five μl of supernatant were diluted in 96-well plates with 95 μl CPRG reaction buffer (50 mM potassium phosphate, pH 7.5, 1 mM MgCl2) and pre-warmed for 5 min to 37°C. 100 μl of pre-warmed reaction mix (100 μM CPRG in CPRG reaction buffer supplemented with protease inhibitor cocktail and 40 μM β-mercaptoethanol) were added and β-Gal mediated cleavage of CPRG was monitored by recording absorption at 592 nm every 2 min for 20 min at 37°C using a TECAN Safire multi-well reader. OD592 values were plotted over time and relative reaction rates (OD592/min) were determined from the initial linear velocities.

[2] = system: MT4-LTR-EGFP-IIIB HIV-1 producing cells; test: in vitro; assay type: cell-based; conditions: for CC50: 4 days; for Cytotoxicity on MT4-LTR-EGFP-IIIB cells, in words: summary of Table 1
Method: (§1) The cytotoxicity of inhibitors was determined in parallel on MT4-CMV-EGFP control cells and on MT4-LTR-EGFP-IIIB virus producing cells, respectively.

[3] = system: MT4-CMV-EGFP control cells; test: Cytotoxicity on uninfected control cells, EGFP fluorescence per well; assay type: cell-based
Method: as §1

HIV-1IIIB = test: Direct antiviral activity: MT4-LTR-EGFP cells infected with HIV-1IIIB, EGFP fluorescence; assay type: cell-based; conditions: read-out: Inhibition of HIV replication in vitro EC50
Method: After 3 days of incubation, infected cells were quantified by determination of total EGFP fluorescence per well based on microscopy and subsequent image analysis. Threshold values were determined from the average pixel value plus 6 standard deviations from the uninfected control wells, and the median threshold from all control wells on a plate was defined as baseline GFP expression. Intensity values for the sample wells were then determined by subtracting the background threshold from each pixel value obtained from the image of the respective well and calculating the sum of net pixel intensities. Percent inhibition was calculated as 100 * (1 - (Sample - CC)/(VC - CC)).

RT heterodimer (p66/p51) = target: T1, RT heterodimer (p66/p51) (Human immunodeficiency virus type 1 group M subtype B, UniProt P04585); test: cell-based; assay type: cell-based, HIV-1; conditions: for Promotion of RT dimerization, in words: summary of Table 1
T1 construct: the bait protein (p66) was fused to the C-terminus of a chimeric receptor; expressed in transfected cells; host or cells: mammalian cells
Excerpt: RT heterodimer formation was monitored using a mammalian two hybrid system described previously. In brief, the bait protein (p66) was fused to the C-terminus of a chimeric receptor consisting of the extracellular part of the erythropoietin receptor and the intracellular part of the leptin receptor incapable of STAT activation. The prey protein (p51) was coupled to a part of the cytoplasmic tail of the gp130 chain carrying several STAT3 recruitment domains. Interaction of bait and prey protein leads to functional complementation of STAT3 activity, which results in Epo dependent induction of a STAT3-responsive luciferase reporter gene. Enhancement of this interaction by the addition of compounds can thus be measured by an increase of luciferase expression.

293T cells = test: Microscopically detectable impairment of cell growth of transfected 293T cells; assay type: cell-based; conditions: high NNRTI concentrations (5 μM and above)
Method: At 44 h post transfection, cell lysates were analyzed for β-Gal activity.

[4] = system: intracellular HIV PR activity; parameters: method as in PMID 17096588; conditions: 5 μM NNRTI; cited from earlier work
in vitro = assay type: cell-based; conditions: human, 4 days, no DRV; mean ± SD; tested up to 10 μM; read-out: Cytotoxicity on MT4-LTR-EGFP-IIIB HIV-1 producing cells CC50
Method: as §1

[5] = Cytotoxicity on uninfected control cells, EGFP fluorescence per well; assay type: cell-based; conditions: human
Method: as §1

[6] = system: HXB2D-EGFP infected CD4 positive cells isolated from PBMC; test: Killing of HIV-1 infected CD4 positive primary T-cells, flow cytometry; assay type: cell-based, human
Method: To validate our results obtained for the persistently infected cell line in a more relevant cell system we performed additional infection experiments using human peripheral blood mononuclear cells (PBMC). […]. PBMC isolated from healthy blood donors were activated and infected with a replication competent HIV-1 derivative which carries a gfp gene in the nef locus. The co-receptor antagonist AMD-3100 was added at day 2 post infection to prevent further viral spread. This was done to distinguish the proposed killing of infected cells from the inhibitory effect of NNRTIs and PIs on virus replication. […]. […] Similar results were obtained upon infection of CD4-positive primary T-cells with an EGFP-expressing virus (Figure 4B).
Figure 4 NNRTI induced selective killing of HIV-1 infected primary human cells. (A) PBMC prepared from buffy coats of healthy blood donors were infected with HIV-1AGFP. At day 2 post infection, 100 ng/ml AMD-3100 was added to all samples to prevent further infection. […] After further incubation for 5 days, cells were harvested and analyzed for the proportion of infected GFP expressing cells by flow cytometry. […] P-values were calculated using a two-tailed unpaired t-test (GraphPad Prism). Values were normalized to the respective solvent control. (B) CD4 positive cells isolated from PBMC were infected with HXB2D-EGFP. […] After further incubation for 3 days, cells were harvested and analyzed for the proportion of infected cells by flow cytometry. […] Asterisks: non-infected controls.
Peripheral blood mononuclear cells (PBMC) were purified from buffy coats of HIV-negative blood donors, grown in supplemented RPMI 1640 and stimulated by the addition of 10 ng/ml IL-2 (Biomol) and 2 μg/ml PHA (Sigma). PBMC pooled from two donors each were used for infection. […] For infection of PBMC, the HIV-1 derivatives HIV-1-AGFP [49] carrying the gfp gene fused to the codon for amino acid 16 of Nef in pNL4-3, or HXB2D-EGFP [60], which carries an egfp gene in the place of the viral nef open reading frame, were used as indicated. […]

HIV-1AGFP infected PBMC = test: Killing of HIV-1 infected PBMC, proportion of GFP expressing cells by flow cytometry; assay type: cell-based, human; conditions: 1 μM NNRTI, added day 2 post infection with AMD-3100, 5 days
Method: PBMC isolated from healthy blood donors were activated and infected with a replication competent HIV-1 derivative which carries a gfp gene in the nef locus [49]. The co-receptor antagonist AMD-3100 was added at day 2 post infection to prevent further viral spread.

[7] = system: Gag processing in MT-4-IIIB cells; test: Immunoblot of Gag processing in chronically infected MT-4 cells; assay type: cell-based, HIV-1
[8] = target: omega fragment of beta-galactosidase (inactive fragment lacking amino acids 11-41), encoded by pCMVω (Escherichia coli)
[9] = 293T cells, 44 h post transfection
[10] = no DRV, mean ± SD, tested up to 10 μM, read-out: Cytotoxicity on MT4-LTR-EGFP-IIIB HIV-1 producing cells CC50
[11] = MT4-LTR-EGFP cells, HIV-1IIIB MOI 0.01, 3 days, mean ± SD of three or more measurements
[12] = concentration enhancing luciferase signal by 50% over control, read-out: Enhancement of RT-Dimerization EC50
[13] = MT4-CMV-EGFP control cells (uninfected), 4 days, mean ± SD, tested up to 10 μM, read-out: Cytotoxicity on MT4-CMV-EGFP control cells CC50
[14] = Human immunodeficiency virus 1, 72 h, MT4-LTR-EGFP cells, HIV-1IIIB MOI 0.01, 3 days, mean ± SD of three or more measurements

COP(=O)(c1cc(C)cc(/C=C/C#N)c1)c1c(C(N)=O)[nH]c2ccc(Cl)cc12 (centres unmarked) [IDX-12899]
Concentration showing strong β-Gal activity enhancement [1, 9]: ~ 250 nM | CC50 [2, 10]: 290 ± 210 nM | Cytotoxicity on MT4-LTR-EGFP-IIIB cells, in words [2]: submicromolar range | CC50 [3]: > 10000 nM | EC50 (HIV-1IIIB; [11]): 1.9 ± 1.3 nM | EC50 (RT heterodimer (p66/p51); [12]): 4.6 nM | Promotion of RT dimerization, in words (RT heterodimer (p66/p51)): low nM range

Cc1cc(C)c(Nc2ccnc(Nc3ccc(C#N)cc3)n2)c(C)c1 [TMC-120]
Impairment of cell growth with decrease in β-Gal activity indicative of cytotoxic effects (293T cells): most pronounced | Stimulation of Gag or Gag-Pol processing [4]: stimulation of Gag processing | Enhancement of alpha complementation [1]: little or no enhancement | CC50 at 4 days (in vitro): 2560 ± 740 nM | Cytotoxicity on MT4-LTR-EGFP-IIIB cells, in words [2]: displayed toxicity | CC50 at 4 days [5, 13]: 3020 ± 900 nM | Cytotoxicity on uninfected MT4-CMV-EGFP control cells, in words ([3]; text summary of Table 1, tested range up to 10 μM): comparable toxicity | EC50 (HIV-1IIIB; [14]): 1.7 ± 1.4 nM

Cc1cc(S(N)(=O)=O)ccc1NC(=O)COc1ccc(Cl)cc1C(=O)c1cc(Cl)cc(C#N)c1 [GW-678248]
Concentration showing strong β-Gal activity enhancement [1, 9]: ~ 250 nM | CC50 [2, 10]: 630 ± 290 nM | CC50 ([2]; read-out: CC50 on virus producing cells in the absence of DRV, one representative experiment (Fig. 3C), 4 parameter fit): 350 nM | Cytotoxicity on MT4-LTR-EGFP-IIIB cells, in words [2]: submicromolar range | CC50 [3]: > 10000 nM | Cytotoxicity on infected CD4-positive primary T-cells ([6]; 1 μM NNRTI + 1 μM AZT, 3 days): PR dependent cytotoxicity | EC50 (HIV-1IIIB; [11]): 0.84 ± 0.25 nM | Infected primary cells (PBMC) as compared with the control (HIV-1AGFP infected PBMC): significant reduction | EC50 (RT heterodimer (p66/p51); [12]): 3.2 nM | Promotion of RT dimerization, in words (RT heterodimer (p66/p51)): low nM range | NNRTI mediated enhancement of Gag processing in virus producing cells ([7]; 1 μM, day 2 post addition): decreased ratio of Gag to intermediate and fully mature processing products

Cc1ccnc2c1NC(=O)c1cccnc1N2C1CC1 [NVP, nevirapine]
Stimulation of Gag or Gag-Pol processing [4]: did not stimulate | Enhancement of alpha complementation [1]: little or no enhancement | CC50 at 4 days [5, 13]: > 10000 nM | EC50 (HIV-1IIIB; [14]): 42 ± 20 nM

CC(C)Nc1cccnc1N1CCN(C(=O)c2cc3cc(NS(C)(=O)=O)ccc3[nH]2)CC1 [DLV, delavirdine]
Stimulation of Gag or Gag-Pol processing [4]: did not stimulate

CC(C)CN(C[C@@H](O)[C@H](Cc1ccccc1)NC(=O)O[C@H]1CO[C@H]2OCC[C@H]21)S(=O)(=O)c1ccc(N)cc1 [DRV, darunavir]
Effect of DRV on the NNRTI effect in CD4-positive primary T-cells ([6]; 100 nM DRV + 1 μM NNRTI + 1 μM AZT): completely reversed | Gag processing under DRV treatment ([7]; 200 nM DRV): impaired

modified Gagα precursor: HIV-1 Gag polyprotein with the β-Gal alpha peptide inserted between MA and CA (from pCHIV.MAα) (from UniProt P12493;P00722)
β-Gal activity (relative rate of CPRG cleavage) in lysates of 293T cells co-transfected with pCMVω and pCHIV.MAα, grown with 2 μM LPV (Gagα processing nearly completely blocked) [8]: 0.054 min^-1

alpha peptide of Escherichia coli beta-galactosidase (amino acids 1-51), released from Gagα by HIV-1 (from UniProt P00722 1-51)
β-Gal activity (relative rate of CPRG cleavage) in lysates of 293T cells co-transfected with pCMVω and pCHIV.MAα, DMSO control [8]: 0.109 min^-1

CCc1nn(CCO)c(CC)c1Oc1cc(C#N)cc(C#N)c1 [UK-453061]
Enhancement of alpha complementation [1]: little or no enhancement | CC50 at 4 days [5]: > 10000 nM | EC50 (HIV-1IIIB; Human immunodeficiency virus 1, 72 h): 7.5 ± 1.4 nM | EC50 (RT heterodimer (p66/p51)): 150 nM

Cc1cc(C#N)cc(C)c1Oc1nc(Nc2ccc(C#N)cc2)nc(N)c1Br [ETV, etravirine]
Impairment of cell growth with decrease in β-Gal activity indicative of cytotoxic effects (293T cells): most pronounced | Concentration required to achieve the maximal effect on β-Gal activity [1, 9]: ~ 1 μM | CC50 at 4 days [5, 13]: > 10000 nM | EC50 (HIV-1IIIB; [14]): 3.2 ± 5 nM | EC50 (RT heterodimer (p66/p51)): 270 nM
